Experiment: gradient 5% acetonitrile 3 min, to 50% in 2 min, to 85% in 15 min, held 3 min, 100 µL/min
Settings: column: Zorbax Extend-C18 2.1 x 50 mm; eluents: water / acetonitrile, 0.1% formic acid
In short: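 Pure standards were analyzed in mixtures of ~100 molecules using HPLC coupled to a quadrupole time-of-flight mass spectrometer, in both positive and negative ionization mode. Separation used a Zorbax Extend-C18 column (2.1 × 50 mm, 1.8 μm) at 100 μL/min, with water and acetonitrile each containing 0.1% formic acid. Dead and dwell volumes were 40 μL and 900 μL, and data were collected over 3 months. Retention time was read from computationally picked adduct peaks, each inspected manually.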

Row | Compound | RP-LC retention time [s]
1 | CN1c2cc(C(=O)N3CCN(C4CCCCC4)CC3)ccc2C(=O)N2CCCCC21 (configuration not stated) | 608
2 | Cc1ccc(N2CCC(NC(=O)NC3CCCC3)C2=O)cc1C (configuration not stated) | 788
3 | Cc1cc(Nc2ncccc2S(N)(=O)=O)ccc1F | 820
4 | CN(C(=O)Nc1ccccc1)C1CCc2nn(CC3CC3)c(=O)n2CC1 (configuration not stated) | 681
5 | COc1cc(OC)c(N(C)C(=O)C2CCCN(c3ncnc4c3nc3n4CCCCC3)C2)cc1Cl (configuration not stated) | 854
6 | Cc1ccc(C)c(C(=O)N2CCN(c3nc4cccnc4o3)CC2)c1 | 765
7 | CCCS(=O)(=O)NCCN1C(=O)C2(CCCCC2)C1c1ccccc1 (configuration not stated) | 898
8 | Cc1ccc2oc(C(=O)N3CCC(CCN4CCCC4)CC3)cc(=O)c2c1 | 603
9 | Cn1c(=O)n(C2CCCN(C(=O)Cc3ccccc3)C2)c2ncncc21 (configuration not stated) | 668
10 | COc1cccc(NC(=O)c2[nH]c3cc(C)sc3c2CN2CCOCC2)c1 | 685
11 | Cc1ccc(OCc2nc(C3CCNC3)no2)cc1 (configuration not stated) | 641
12 | Cc1cc(C)c(S(=O)(=O)N2CCN(Cc3cccc(F)c3)C3(CCOCC3)C2)c(C)c1 | 973
13 | CC(CNC(=O)c1cc2n(n1)CC(C)(C(=O)NC1CCCCC1)N(C)C2=O)c1ccccc1 (configuration not stated) | 795
14 | COc1ccc(NC(=O)C2CCN(S(=O)(=O)c3cc(C(=O)N(C)C)cs3)CC2)cc1 | 730
15 | CC1CCN(C(=O)c2cc3c(s2)CCC(C(=O)NCCCN2CCOCC2)C3)CC1 (configuration not stated) | 542
16 | CC1(C(=O)NC2CCCC2)CN(S(=O)(=O)c2ccccc2)CC(=O)N1c1ccc(F)cc1 (configuration not stated) | 892
17 | Cc1cc(C2CCCN2C(=O)c2cnn3c(C(F)(F)F)cc(-c4ccco4)nc23)on1 (configuration not stated) | 855
18 | CN(CC1CCOC1)C(=O)Nc1cc(F)ccc1F (configuration not stated) | 704
19 | Cc1ccc(NC(=O)C2CCN(S(=O)(=O)c3ccc4c(c3)NC(=O)C(C)O4)CC2)cc1 (configuration not stated) | 817
20 | Cc1cc(C(=O)N(C)C)c(C)n1-c1ccc(O)cc1 | 661
21 | CC(C)C(=O)N1CCC2(C1)c1nc[nH]c1CCN2CC1CCCCC1 (configuration not stated) | 608

Row | Compound | RP-LC retention time [s]
22 | COC(=O)c1ccc(NC(=O)N2CCC3(CC2)N(CC2CC2)C(=O)CS3=O)cc1 (configuration not stated) | 674
23 | C/C(=C\c1csc(C)n1)C1C[C@@H]2O[C@]2(C)CCC[C@H](C)[C@H](O)[C@@H](C)C(=O)C(C)(C)[C@@H](O)CC(=O)O1 (some centres not stated) | 901
24 | Cc1c(CC(=O)N2CCN(c3cccc(Cl)c3)CC2)c2c(=O)n(C)c(=O)n(C)c2n1C | 790
25 | Cc1ccc(C)c(NC(=O)C(=O)NCC(c2ccc3c(c2)CCCN3C)N2CCOCC2)c1 (configuration not stated) | 601
26 | CCCNC(=O)C1CCN(c2ccc(SCC(=O)Nc3ccc4c(c3)OCCO4)nn2)CC1 | 626
27 | O=C(c1ccc2c(c1)OCO2)N1CCN(Cc2nnnn2-c2ccc(F)c(F)c2)CC1 | 746
28 | CC(=O)N1CCN(C(=O)c2ccc(O)cc2)CC1 | 515
29 | COc1ccc(S(=O)(=O)N2CCCC(C(=O)NCc3cccnc3)C2)cc1OC (configuration not stated) | 591
30 | COCc1ncc(C)n1C1CCN(C(=O)c2noc(C)c2Cc2c(C)noc2C)C1 (configuration not stated) | 617
31 | CCOc1ccc(Br)cc1S(=O)(=O)N1CCN(c2nc(C)cc(N(C)C)n2)CC1 | 765
32 | CCc1ccc(OCC(=O)Nc2cnn(C)c(=O)c2N2CCOCC2)cc1 | 889
33 | CCCCOC(=O)CSc1nnc(-c2ccc(Br)cc2)o1 | 1190
34 | CN1C(=O)[C@H]2CN(Cc3ccccc3)C[C@H]2C1=O | 546
35 | COc1c2c(cc3c1OCO3)CCN(C)C2 | 598
36 | CC(C)C(=O)N1CC[C@H](CO)[C@H](NC(=O)C2CC2)C1 | 583
37 | COC(=O)c1ccc2c(=O)n(-c3ccc(C)cc3)c(N3CCCCCC3)nc2c1 | 1340
38 | COc1ccc(Nc2c(-c3ccc(OC)c(OC)c3)nc3cnccn23)cc1OC | 672
39 | Clc1ccccc1N1CCN(c2ncnc3[nH]ncc23)CC1 | 660
40 | CCOc1ccc(-c2noc(N3CCC(C(=O)N4CCOCC4)CC3)n2)cc1OC | 736
41 | Cc1cc(C)cc(NC(=O)N(C)CC2CCOC2)c1 (configuration not stated) | 743

Now from value to molecule:

Row | RP-LC retention time [s] | Compound
42 | 1040 | CCN1C(=O)COc2ccc(-c3csc(NC(=O)c4ccccc4OC)n3)cc21
43 | 677 | O=C(Cc1c[nH]c2ncccc12)NCc1ccc(C(F)(F)F)cc1
44 | 1250 | COc1ccccc1-c1csc(NC(=O)c2sc(COc3cccc(C)c3)nc2C)n1
45 | 729 | COc1cccc2sc(N(C)CC(=O)Nc3ccc(-n4cnnn4)cc3)nc12
46 | 995 | CCCc1noc(-c2cccnc2N2CCCN(C(=O)Nc3cc(C)ccc3C)CC2)n1
47 | 1110 | O=C(Nc1ccc(Cl)cc1)C1CCCN(c2nc3ccsc3c(=O)n2Cc2ccc(F)cc2)C1 (configuration not stated)
48 | 866 | Cc1nc(-c2noc(-c3ccccc3)n2)cn1CC(=O)NCc1ccc(Cl)cc1
49 | 1150 | COc1ccc(CCC(=O)Nc2nc(-c3cccc(Br)c3)cs2)cc1
50 | 958 | CC1(C(=O)NCc2ccccc2)CN(S(=O)(=O)c2ccccc2)CC(=O)N1c1cccc(Cl)c1 (configuration not stated)
51 | 930 | CCCOc1ccc(-c2nc(N3CCCCC3)c3ccccc3n2)cc1
52 | 1090 | CCCn1c(=O)c(C)nc2cc(-c3noc(Cc4cccc(F)c4)n3)ccc21
53 | 859 | CCCN(CCC)C(=O)Cn1nc(-c2nc(-c3ccc(C)cc3)no2)c2ccccc21
54 | 648 | CCCNC(=O)C1CCCN(c2ccc(SCC(=O)NCc3ccccc3)nn2)C1 (configuration not stated)
55 | 589 | COc1ccc(-c2noc(Cn3ccnc3C)n2)cc1OC
56 | 993 | Cc1ccc(F)cc1NS(=O)(=O)c1cn(CC(C)C)c2ncccc12
57 | 872 | Cc1nc(Nc2ccc(F)cn2)sc1C(=O)N1CCc2ccccc2C1
58 | 1020 | COc1ccc(-c2noc(C3CC(=O)N(c4ccc(C)c(Cl)c4)C3)n2)cc1OC (configuration not stated)
59 | 958 | Cc1ccc(Cn2c(N3CCCC(C(=O)NCc4ccccc4)C3)nc3ccsc3c2=O)cc1 (configuration not stated)
60 | 668 | CCc1ccc(NC(=O)Cn2c(C)nc3cc4c(cc32)OCCO4)cc1
61 | 1180 | CCn1cc(-c2nc(C(=O)Nc3ccccc3OC)cs2)c2cccnc21
62 | 890 | Cc1ccccc1NC(=O)N1CCCC1c1cc(C(C)C)on1 (configuration not stated)
63 | 658 | Cc1noc(-c2ccc(NC(=O)c3cn(C)nn3)cc2)n1
64 | 912 | COc1cccc(-c2ccc(SCC(=O)Nc3ccccc3C(F)(F)F)nn2)c1
65 | 570 | CCC(CN1CCOCC1)Nc1nc(-c2ccc(OC)cc2)nc2ccccc12 (configuration not stated)
66 | 590 | COc1ccc(NC(=O)Nc2cc(-c3cn4cccnc4n3)ccc2C)cc1
67 | 643 | Cc1oc2c(c1C(=O)Nc1cccc(Br)c1)C1=NCCN1C=N2

— the METLIN SMRT retention time set (Domingo-Almenara et al. 2019)
